According to PMC6211832, “Screening of candidate substrates and coupling ions of transporters by thermostability shift assays” (eLife, 2018):
Values belong to the compound of their own block, whether it stands above or below them.

Tests used:
[1] = biological target: T1, GalP (Escherichia coli, UniProt P0AEP1); assay: CPM thermostability shift assay; format: binding; conditions: 50 mM compound, dodecyl-maltoside
T1 construct: full length, C-terminal His6; plasmid pGP1 in E. coli JM1100, purified in dodecyl-maltoside
T1 sequence (P0AEP1 whole entry): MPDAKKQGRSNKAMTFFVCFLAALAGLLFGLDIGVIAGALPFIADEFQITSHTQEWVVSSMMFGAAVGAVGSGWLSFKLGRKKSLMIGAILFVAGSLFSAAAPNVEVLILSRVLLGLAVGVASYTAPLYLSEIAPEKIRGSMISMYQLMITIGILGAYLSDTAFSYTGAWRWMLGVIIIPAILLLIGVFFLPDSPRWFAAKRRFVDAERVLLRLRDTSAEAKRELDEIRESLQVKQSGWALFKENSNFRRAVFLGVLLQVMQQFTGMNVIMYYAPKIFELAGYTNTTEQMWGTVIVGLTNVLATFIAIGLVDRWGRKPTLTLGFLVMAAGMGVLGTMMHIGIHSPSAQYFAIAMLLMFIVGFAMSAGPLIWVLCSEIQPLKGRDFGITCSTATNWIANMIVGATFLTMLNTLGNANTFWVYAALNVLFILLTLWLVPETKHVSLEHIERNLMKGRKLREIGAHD

[2] = biological target: T2, mitochondrial ADP/ATP carrier (AAC) (Thermothelomyces thermophilus, UniProt G2QNH0); assay: CPM thermostability shift assay; format: binding; conditions: 2.5 mM compound, pH 8.0, 100 mM NaCl, dodecyl-maltoside, tetraoleoyl cardiolipin
T2 construct: gene MYCTH_2316753; N-terminal His8 tag, TSED linker and Factor Xa site; expressed in S. cerevisiae WB.12 mitochondria, purified in dodecyl-maltoside
T2 sequence (G2QNH0 whole entry): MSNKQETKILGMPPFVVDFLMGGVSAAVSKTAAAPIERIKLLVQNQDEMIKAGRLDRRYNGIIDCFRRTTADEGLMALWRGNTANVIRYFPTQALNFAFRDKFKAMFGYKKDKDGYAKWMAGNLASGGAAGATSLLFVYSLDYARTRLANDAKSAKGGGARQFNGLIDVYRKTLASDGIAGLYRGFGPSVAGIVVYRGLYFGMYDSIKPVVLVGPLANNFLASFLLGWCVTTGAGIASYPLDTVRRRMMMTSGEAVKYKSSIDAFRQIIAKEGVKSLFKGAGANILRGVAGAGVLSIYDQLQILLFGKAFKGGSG
Source text: CPM thermostability shift assay on mitochondrial ADP/ATP carrier (AAC) | In the presence of ATP, ADP, and dADP the population was stabilized

[3] = biological target: T3, Mhp1 (Microbacterium maritypicum, UniProt D6R8X8); assay: CPM thermostability shift assay; format: binding; conditions: 2 mM compound, 140 mM NaCl, pH 8.0, dodecyl-maltoside
T3 construct: gene hyuP; full length, C-terminal His6; plasmid pTTQ18, E. coli BL21(DE3), purified in dodecyl-maltoside
T3 sequence (D6R8X8 whole entry): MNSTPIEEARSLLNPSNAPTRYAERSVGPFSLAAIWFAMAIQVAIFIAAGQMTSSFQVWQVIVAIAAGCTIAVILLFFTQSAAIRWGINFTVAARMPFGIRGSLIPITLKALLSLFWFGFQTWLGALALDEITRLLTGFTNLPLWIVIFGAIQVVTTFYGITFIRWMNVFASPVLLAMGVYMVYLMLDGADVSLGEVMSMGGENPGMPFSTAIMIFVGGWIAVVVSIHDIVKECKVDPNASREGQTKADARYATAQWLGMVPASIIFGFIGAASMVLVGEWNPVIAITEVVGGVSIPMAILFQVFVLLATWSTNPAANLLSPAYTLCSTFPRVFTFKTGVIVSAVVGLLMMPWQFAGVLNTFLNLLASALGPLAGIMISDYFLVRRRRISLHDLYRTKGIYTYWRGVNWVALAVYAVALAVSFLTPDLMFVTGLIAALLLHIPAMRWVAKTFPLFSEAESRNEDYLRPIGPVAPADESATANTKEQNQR

[4] = biological target: T1, GalP; assay: CPM thermostability shift assay; format: binding; conditions: 50 mM compound, dodecyl-maltoside; remark: listed apart in the source
[5] = biological target: T4, mitochondrial phosphate carrier of Tetrahymena thermophila (UniProt I7M3J0) (Tetrahymena thermophila, UniProt I7M3J0); assay: CPM thermostability shift assay; format: binding; conditions: 2.5 mM compound, pH 6.0, 100 mM NaCl, tetraoleoyl cardiolipin
T4 construct: gene TTHERM_00535740; N-terminal His8 tag, TSED linker and Factor Xa site; expressed in S. cerevisiae W303-1B mitochondria, purified in lauryl maltose neopentyl glycol
T4 sequence (I7M3J0 entry or part of it): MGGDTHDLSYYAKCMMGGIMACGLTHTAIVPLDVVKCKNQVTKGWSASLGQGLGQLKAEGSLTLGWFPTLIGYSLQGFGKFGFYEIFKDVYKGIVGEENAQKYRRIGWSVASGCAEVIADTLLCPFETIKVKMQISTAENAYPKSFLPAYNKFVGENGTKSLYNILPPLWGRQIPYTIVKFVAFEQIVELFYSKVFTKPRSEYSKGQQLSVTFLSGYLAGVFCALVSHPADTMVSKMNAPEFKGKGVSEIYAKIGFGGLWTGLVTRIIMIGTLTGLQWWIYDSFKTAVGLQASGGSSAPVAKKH

[6] = biological target: T4, mitochondrial phosphate carrier of Tetrahymena thermophila; assay: competition of […]-orthophosphate uptake in proteoliposomes; format: biochemical; conditions: 20 mM external glyoxylate, 20 μM [33P]-orthophosphate, pH 6.5, 20 mM internal compound

SMILES: OC[C@H]1OC(O)C[C@@H](O)[C@@H]1O (stereo partly drawn) [2-deoxy-D-glucose]
- dTm [1]: to a lesser extent by D-talose, 2-deoxy-D-glucose, 6-deoxy-D-glucose

SMILES: C[C@H]1OC(O)[C@H](O)[C@@H](O)[C@@H]1O (stereo partly drawn) [6-deoxy-D-glucose]
- dTm [1]: to a lesser extent by D-talose, 2-deoxy-D-glucose, 6-deoxy-D-glucose

SMILES: Nc1ncnc2c1ncn2[C@@H]1O[C@H](COP(=O)(O)OP(=O)(O)OP(=O)(O)O)[C@@H](O)[C@H]1O [ATP]
- dTm [2]: 7.2 ± 0.2 °C

SMILES: OC[C@H]1OC(O)[C@H](O)[C@@H](O)[C@H]1O (stereo partly drawn) [D-galactose]
- dTm [4]: 2.1 ± 0.6 °C

SMILES: OC[C@H]1OC(O)[C@H](O)[C@@H](O)[C@@H]1O (stereo partly drawn) [D-glucose]
- dTm [4]: 4.2 ± 0.5 °C

SMILES: OC[C@H]1OC(O)[C@@H](O)[C@@H](O)[C@H]1O (stereo partly drawn) [D-talose]
- dTm [1]: to a lesser extent by D-talose, 2-deoxy-D-glucose, 6-deoxy-D-glucose

SMILES: Nc1ncnc2c1ncn2[C@H]1C[C@H](O)[C@@H](COP(=O)(O)OP(=O)(O)O)O1 [dADP]
- dTm [2]: 1.8 ± 0.2 °C

SMILES: O=CC(=O)O [glyoxylate]
- inhibition of phosphate uptake [6]: in competition assays glyoxylate abolished uptake
- dTm [5]: 3.6 ± 0.8 °C

SMILES: C=C(OP(=O)(O)O)C(=O)O [phosphoenolpyruvate]
- dTm [5]: 2.3 ± 0.2 °C

The remaining lines, values ahead:

- dTm [2]: 6.0 ± 0.5 °C
SMILES: Nc1ncnc2c1ncn2[C@@H]1O[C@H](COP(=O)(O)OP(=O)(O)O)[C@@H](O)[C@H]1O [ADP]

- dTm [3]: 11.9 ± 1.1 °C
SMILES: O=C1NC(=O)C(C=CBr)N1 (stereo not drawn) [BVH, 5-bromovinylhydantoin]

- dTm [3]: 13.6 ± 1.2 °C
SMILES: O=C1NC(=O)[C@H](Cc2ccccc2)N1 [L-BH, 5-benzyl-L-hydantoin]

- dTm ([3]; inhibitor): 15.6 ± 1.7 °C
SMILES: O=C1NC(=O)[C@H](Cc2ccc3ccccc3c2)N1 [L-NMH, 5-(2-naphthylmethyl)-L-hydantoin]

- dTm [5]: 3.2 ± 0.5 °C
SMILES: CC(=O)OP(=O)(O)O [acetyl-phosphate]
